Test results published in patent US8604029B2, “2-[(2-substituted)-indolizin-3-yl]-2-oxo-acetamide derivatives as antifungal agents” (F2G Ltd British Body Corporate, priority 2006, dated 2013).
Converted amounts (≈) assume the structure as drawn.

How the values were obtained:
Assay in all cases: MIC measurement, YAG medium
Type in all cases: cell-based
[1] = tested on: Aspergillus fumigatus AF210; conditions: MIC banded into grades; for MIC: Aspergillus fumigatus, strain AF210, read-out: MIC A. fumigatus 210
In short: (§1)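 Spores from 5-day Sabouraud agar cultures were diluted in YAG medium (1% glucose, 1% ammonium chloride, 0.5% yeast extract) to a final inoculum of 1-2×10^4 cfu/mL, with drug at 50-0.05 mg/L. Plates were incubated 24 h at 35° C and read as OD 485 nm. MIC is the lowest concentration giving >70% inhibition versus drug-free control, in mg/L.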

Aspergillus terreus AT49 = conditions: MIC banded into grades; for MIC: Aspergillus terreus, strain AT49, read-out: MIC A. terreus 49
In short: as §1

Aspergillus fumigatus = conditions: YAG medium, MIC banded into grades, strain AF293; for MIC: Aspergillus fumigatus, read-out: MIC A. fumigatus
In short: as §1

Aspergillus niger = conditions: MIC banded into grades; for MIC: Aspergillus niger
In short: as §1

Aspergillus flavus = conditions: MIC banded into grades, lowest concentration inhibiting growth by >70%; for MIC: Aspergillus flavus
In short: as §1

Aspergillus terreus = conditions: MIC banded into grades, strain not named in head (AT4); for MIC: Aspergillus terreus
In short: as §1

| MIC [1] [µg/mL] | MIC (Aspergillus terreus AT49) [µg/mL] | MIC (Aspergillus fumigatus) [µg/mL] | MIC (Aspergillus niger) [µg/mL] | MIC (Aspergillus flavus) [µg/mL] | MIC (Aspergillus terreus) [µg/mL] | Compound | MIC A. fumigatus 210 ([1]; strain AF210) | MIC A. terreus 49 (Aspergillus terreus AT49; strain AT49) | MIC A. fumigatus (Aspergillus fumigatus) | MIC A. niger (Aspergillus niger) | MIC A. flavus (Aspergillus flavus) | MIC A. terreus (Aspergillus terreus) |
| --- | --- | --- | --- | --- | --- | --- | --- | --- | --- | --- | --- | --- |
| > 10 | 1 to 10 (≈ 1.98 to 19.8 µM) | > 10 | > 10 | 1 to 10 (≈ 1.98 to 19.8 µM) | 1 to 10 (≈ 1.98 to 19.8 µM) | Cc1nc(C(C)C)cn1C(C)(C)c1cccc(NC(=O)C(=O)c2c(-c3ccccc3)cc3ccccn23)c1 [Example 25] |  |  |  |  |  |  |
| 1 to 10 (≈ 1.91 to 19.1 µM) | 1 to 10 (≈ 1.91 to 19.1 µM) | 1 to 10 (≈ 1.91 to 19.1 µM) | < 1 | 1 to 10 (≈ 1.91 to 19.1 µM) | 1 to 10 (≈ 1.91 to 19.1 µM) | CCOCCN(C1=NC(C)(C)CO1)c1ccc(NC(=O)C(=O)c2c(-c3ccccc3)cc3ccccn23)cc1 [Example 28] |  |  |  |  |  |  |
| > 10 | > 10 | > 10 | > 10 | > 10 | > 10 | CCn1ccnc1Cc1ccc(NC(=O)C(=O)c2c(-c3ccccc3C)cc3ccccn23)cc1 [Example 30, N-[4-(3-Ethyl-1H-imidazol-2ylmethyl)-phenyl]-2-oxo-2-(2-o-tolyl-indolizin-3yl)-acetamide] |  |  |  |  |  |  |
| < 1 | < 1 | < 1 | < 1 | < 1 | < 1 | O=C(Nc1ccc(N2CCN(Cc3ccco3)CC2)cc1)C(=O)c1c(-c2ccccc2)cc2ccccn12 [Example 31, 4-[4-(2-Furan-2-yl-methyl-piperazin-yl)-phenyl]-2-oxo-2-(2-phenyl-indolizin-3-yl)-acetamide] |  |  |  |  |  |  |
| < 1 | < 1 | < 1 | < 1 | < 1 | < 1 | O=C(Nc1ccc(N2CCN(Cc3cccs3)CC2)cc1)C(=O)c1c(-c2ccccc2)cc2ccccn12 [Example 33, 2-Oxo-2-(2-phenylindolizin-3-yl)-N-[4-(4-thiophen-2-ylmethylpiperazin-1-yl)phenyl] acetamide] |  |  |  |  |  |  |
| < 1 | < 1 | < 1 | < 1 | < 1 | < 1 | O=C(Nc1ccc(N2CCN(Cc3ccco3)CC2)nc1)C(=O)c1c(-c2ccccc2)cc2ccccn12 [Example 34] |  |  |  |  |  |  |
|  |  |  |  |  |  | Cc1ccccc1-c1cc2ccccn2c1C(=O)C(=O)Nc1ccc(N2CCN(Cc3ccco3)CC2)cn1 [Example 35, N-[5-(2-Furan-2-yl-methyl-piperazin-yl)-peridin-2-yl]-2-oxo-2-(2-o-tolyl-indolizin-3-yl)-acetamide] | 3 (A grade of 3 represents an MIC of less than 1 mg/L) | 3 (A grade of 3 represents an MIC of less than 1 mg/L) | 3 (A grade of 3 represents an MIC of less than 1 mg/L) | 3 (A grade of 3 represents an MIC of less than 1 mg/L) | 3 (A grade of 3 represents an MIC of less than 1 mg/L) | 3 (A grade of 3 represents an MIC of less than 1 mg/L) |
| < 1 | < 1 | < 1 | < 1 | < 1 | < 1 | O=C(Nc1ccc(N2CCN(CCc3ccccn3)CC2)cc1)C(=O)c1c(-c2ccccc2)cc2ccccn12 [Example 36, 2-Oxo-2-(2-phenyl-indolizin-3-yl)-N-{4-[4-(2-pyridin-yl-ethyl)-perazin-1-yl]-phenyl}-acetamide] |  |  |  |  |  |  |
| < 1 | < 1 | < 1 | < 1 | < 1 | < 1 | O=C(Nc1ccc(N2CCN(c3ccccn3)CC2)cc1)C(=O)c1c(-c2ccccc2)cc2ccccn12 [Example 41, 2-Oxo-2-(2-phenyl-indolizin-3yl)-N-[4-(4-pyridin-2-yl-piperizin-1-yl)-phenyl]-acetamide] |  |  |  |  |  |  |
| < 1 | < 1 | < 1 | < 1 | < 1 | < 1 | O=C(Nc1ccc(N2CCN(c3ccccn3)CC2)cc1)C(=O)c1c(-c2ccccc2)cc2ccc(F)cn12 [Example 42, 2-(6-Fluoro-2-phenyl-indolizin-3-yl)-2-oxo-N-[4-(4-pyridin-2-yl-piperazin-1-yl)phenyl] acetamide] |  |  |  |  |  |  |
| < 1 | < 1 | < 1 | 1 to 10 (≈ 1.88 to 18.8 µM) | < 1 | < 1 | Cc1cc(N2CCN(c3ccc(NC(=O)C(=O)c4c(-c5ccccc5)cc5ccccn45)cc3)CC2)nc(C)n1 [Example 45] |  |  |  |  |  |  |
| < 1 | < 1 | < 1 | < 1 | < 1 | < 1 | Cc1cc(C)nc(N(C)CCCc2ccc(NC(=O)C(=O)c3c(-c4ccccc4)cc4ccccn34)cc2)c1 [Example 70, N-(4-{3-[(4,6-Dimethyl-pyridin-2-yl)-methyl-amino]-propyl}-phenyl)-2-oxo-2-(2-phenyl-indolizin-3-yl)-acetamide] |  |  |  |  |  |  |
| < 1 | < 1 | < 1 | < 1 | < 1 | < 1 | O=C(Nc1ccc(N2CCN(c3ccc(CN4CCOCC4)cn3)CC2)cc1)C(=O)c1c(-c2ccccc2)cc2ccccn12 [Example 77, N-{4-[4-(5-morpholin-4-yl-methyl-pyridin-2-yl)-piperazin-1-yl]-phenyl}-2-oxo-2-(2-phenyl-indolizin-3-yl)-acetamide] |  |  |  |  |  |  |
|  |  | > 10 |  |  |  | O=C(Nc1ccc(-c2cocn2)cc1)C(=O)c1c(-c2ccc(-c3ccccc3)cc2)cc2ccccn12 [Example 85, 2-(2-Biphenyl-4-yl-indolizin-3-yl)-N-(4-oxazol-4-yl-phenyl)-2-oxo-acetamide] |  |  |  |  |  |  |
|  |  | < 1 |  |  |  | O=C(Nc1ccc(N2CCN(c3cccc(CCO)n3)CC2)cc1)C(=O)c1c(-c2ccccc2)cc2ccccn12 [Example 88, N-(4-{4-[6-(2-hydroxy-ethyl)-pyridin-2-yl]-piperazin-1-yl}-phenyl)-2-oxo-2-(2-phenyl-indolizin-3-yl)-acetamide] |  |  |  |  |  |  |
|  |  | 1 to 10 (≈ 1.78 to 17.8 µM) |  |  |  | O=C(Nc1ccc(N2CCN(c3cc(OCCO)ccn3)CC2)cc1)C(=O)c1c(-c2ccccc2)cc2ccccn12 [Example 89, N-(4-{4-[4-(2-Hydroxy-ethoxy)-pyridin-2-yl]-piperazin-1-yl}-phenyl)-2-oxo-2-(2-phenyl-indolizin-3-yl)-acetamide] |  |  |  |  |  |  |
|  |  | < 1 |  |  |  | O=C(Nc1ccc(NCCOc2ccccn2)cc1)C(=O)c1c(-c2ccccc2)cc2ccccn12 [Example 90, 2-Oxo-2-(2-phenyl-indolizin-3-yl)-N-{4-[2-(pyridin-2-yloxy)-ethylamino]-phenyl}-acetamide] |  |  |  |  |  |  |
|  |  | < 1 |  |  |  | Cc1cc(C)nc(CNc2ccc(NC(=O)C(=O)c3c(-c4ccccc4)cc4ccccn34)cc2)c1 [Example 91, N-{4-[(4,6-Dimethyl-pyridin-2-ylmethyl)-amino]-phenyl}-2-oxo-2-(2-phenyl-indolizin-3-yl)-acetamide] |  |  |  |  |  |  |
|  |  | < 1 |  |  |  | Cc1cc(C)nc(NCCNc2ccc(NC(=O)C(=O)c3c(-c4ccccc4)cc4ccccn34)cc2)c1 [Example 92, N-{4-[2-(4,6-dimethyl-pyridin-2-yl-amino)-ethylamino]-phenyl}-2-oxo-2-(2-phenyl-indolizin-3-yl)-acetamide] |  |  |  |  |  |  |
